Patent US5880121A, “4,5-dihydronaphth (1,2-c) isoxazoles and derivatives thereof” (Hoechst Marion Roussel Inc., priority 1996, dated 1999)
pIC50: −log10 of the molar value.

Columns and labels:
[1] = target: T1, 5-HT3 Receptor (Rattus norvegicus, UniProt P35563); test: ^3 H-GR 65630 Binding to Rat Entorhinal Cortex Membranes (affinity for 5-HT3 receptor); set-up: species or system Male Wistar rat; settings: 0.4 nM [^3 H]-GR65630, pH 7.4, 30 minutes at 37° C., read-out: IC50, Affinity for 5-HT3 Receptor-Displacement of ^3 H-GR 65630
T1 construct: Male Wistar rats (15-200 g) were decapitated, the entorhinal cortex removed, weighed and homogenized; from tissue; host or cells: entorhinal cortex membranes of male Wistar rats
T1 sequence (P35563 24-483): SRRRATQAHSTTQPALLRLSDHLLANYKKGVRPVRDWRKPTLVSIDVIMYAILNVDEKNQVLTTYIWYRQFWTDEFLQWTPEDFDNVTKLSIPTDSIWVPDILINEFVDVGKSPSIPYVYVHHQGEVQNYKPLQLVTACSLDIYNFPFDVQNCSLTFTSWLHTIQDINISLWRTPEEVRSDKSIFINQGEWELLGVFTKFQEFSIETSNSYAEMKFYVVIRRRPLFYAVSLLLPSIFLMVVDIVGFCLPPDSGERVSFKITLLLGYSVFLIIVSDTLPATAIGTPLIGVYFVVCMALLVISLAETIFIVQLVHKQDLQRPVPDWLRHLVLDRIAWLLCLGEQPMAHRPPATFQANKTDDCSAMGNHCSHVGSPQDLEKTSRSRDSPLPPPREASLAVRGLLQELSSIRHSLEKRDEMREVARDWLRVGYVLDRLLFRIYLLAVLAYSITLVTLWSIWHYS
Method: In accordance with the above-discussed assay, a 0.05M of Krebs-Hepes buffer, pH 7.4 was prepared as follows:
q.s. to 1 liter with distilled H2 O, bring pH up to 7.4 (at 4° C.) with 5N NaOH
[^3 H]-GR65630 (87.0 Ci/mmol) was obtained from New England Nuclear.
GR38032F was obtained from Research Biochemical Inc. GR38032F was made up to a concentration of 500 μM in Krebs-Hepes buffer. 50 μl of […] were added to each of 3 tubes for determination of nonspecific binding (yields a final concentration of 100 μM in the 250 μl assay).
For most assays, a 50 μM stock solution was prepared in a suitable solvent and serially diluted with Krebs-Hepes buffer such that when 50 μl of drug is combined with the total 250 μl assay, a final concentration from 10^-5 to 10^-8 M was attained.
During tissue preparation, Male Wistar rats ([…]) were decapitated, the entorhinal cortex removed, weighed and homogenized in 10 volumes of ice cold 0.05M Krebs-Hepes buffer, pH 7.4. The homogenate is centrifuged at 48,000 g for 15 minutes at 4° C. The resulting pellet was rehomogenized in fresh Krebs-Hepes buffer and recentrifuged at 48,000 g for 15 minutes at 4° C. The final pellet was resuspended in the original volume of ice-cold Krebs-Hepes buffer. This yielded a final tissue concentration of 1.2 to 1.6 mg/ml with the addition of 100 μl to the assay.
In conducting the assay, the following volumes were utilized:
Sample tubes were kept on ice for additions, then vortexed and incubated with continuous shaking for 30 minutes at 37° C. At the end of the incubation period, the incubate is diluted with 5 ml of ice-cold Krebs-Hepes buffer and immediately vacuum filtered through Whatman GF/B filters, followed by two 5 ml washes with ice-cold Krebes-Hepes buffer. The filters are dried and counted in 10 ml of liquid scintillation cocktail. […] IC50 values were derived from computer-derived log-probit analysis.

[2] = tested on: 5-HT3; test: 5 HT3 antagonist effects in the Bezold-Jarisch assay (reflex bradycardia, anesthetized Long-Evans rat); type: in vivo; settings: ip, mean ± SEM, 2-3 rats/dose
Excerpt: Measurement of 5 HT3 Antagonist Effects in the Bezold-Jarisch Assay
This assay evaluates the effect of these compounds as 5-HT3 antagonists. They were examined in this assay on the coronary chemoreflex (Bezold-Jarisch) initiated by […] in vivo and characterized by leading inhibition of sympathetic outflow and increased activity of the cardiac vagus, leading to profound bradycardia and hypotension. The values obtained allow for continuous monitoring of arterial pressure and heart rate responses by these compounds over an extended period of time to determine their effecicy for 5 HT3 antagonism.
The catheters were prepared from Tygon tubing (45 cm length, […], ID) bonded to Teflon tubing (0.38 mm, ID). The mechanical bonding was achieved by insertion of the Teflon tubing (5 mm) into the dilated (ethylene dichloride, 3-4 min.) tip of the Tygon tubing. The junction was then sealed with vinyl glue, the catheters were soaked in cold sterilization solution (Amerse instrument germicide) and flushed thoroughly with saline prior to implantation.
Long Evans rats were anesthetized with sodium pentobarbital (50 mg/kg, ip). […] The catheters were then sutured to the underlying muscle and the free ends were passed subcutaneously and exteriorized through an incision on the top of the skull. The catheters were then secured to the skin with sutures, nitrofurazone powder was dusted over the area of the incision and the incision was closed using 3-O silk sutures. The catheters were flushed with saline and sealed with metal obturators. Patentcy of the two catheters was maintained by daily flushing with hepranized saline (0.2 ml of 100 U/ml). The rats were given 48 hours recovery prior to obtaining cardiovascular data.
In the anesthetized rat model the catheters were not exteriorized, data was collected acutely under the influence of general anesthesia.
The baseline data Arterial Blood Pressure (mm Hg, systolic/diastolic) and Heart Rate (beats/min) were recorded and the rats were injected with 5-HT (3-7.5 ug/kg, iv). The individual response to the 5-HT intervention was determined and the compound was then administered singlely or in an ascending dose range. The rats were challenged with 5-HT again at intervals postdosing and the peak response was recorded.

Structure (SMILES)	pIC50 [1]	% Inhibition of Bezold-Jarisch Reflex ([2]; 0.03 mg/kg)	% Inhibition of Bezold-Jarisch Reflex ([2]; 0.05 mg/kg)	% Inhibition of Bezold-Jarisch Reflex ([2]; 0.10 mg/kg)	% Inhibition of Bezold-Jarisch Reflex ([2]; 1.0 mg/kg)	% Inhibition of Bezold-Jarisch Reflex ([2]; 3.0 mg/kg)	% Inhibition of Bezold-Jarisch Reflex ([2]; 10.0 mg/kg)
OCCN1CCN(c2onc3c2CCc2ccccc2-3)CC1 [Ex. 3, 3-(4-(2-Hydroxyethyl)-1-piperazinyl)-4,5-dihydronaphth[1,2-c]isoxazole]	6.06						
c1ccc2c(c1)CCc1c-2noc1N1CCCNCC1 [Ex. 4, 3-(1-Homopiperazinyl)-4,5-dihydronaphth[1,2-c]isoxazole]	7.08	58.6 ± 16.4%	83.3 ± 8.2%	93.0 ± 1.0%			
c1ccc2c(c1)CCc1c-2noc1N1CCNCC1 [Ex. 5, 3-(1-Piperazinyl)-4,5-dihydronaphth[1,2-c]isoxazole]	7.25				55.6 ± 9.7%	89.3 ± 2.9%	
Cc1nccn1CC1CCc2c(c3ccccc3n2C)C1=O (stereo not shown) [Ondansetron, reference compound]						57.3 ± 9.7%	94.6 ± 2.7%
